Source: patent publication US20080085917A1, “7-(2-(4-(3-TRIFLUOROMETHYL-PHENYL)-1,2,3,6-TETRAHYDROPYRID-1-YL)ETHYL)ISOQUINOLINE BESYLATE SALT, PREPARATION AND THERAPEUTIC USE THEREOF” (sanofi-aventis, priority 2005, published 2008)

Legend:
Format in all cases: physicochemical
[1] = Water sorption isotherms (DVS); details: 25° C.
Method: The DVS tests are carried out using a DVS-1 system. From 20 to 32 mg of product are used per analysis and the temperature is maintained at 25° C. plus or minus 0.2° C. Nitrogen is used as carrier gas at a flow rate of 100 ml/min in the sample chamber.

[2] = Water content by thermogravimetric analysis (TGA); details: for Loss in weight / Nature of the solvent: TGA; for Loss in weight: from 25° C., 10° C./min, nitrogen purge; for Nature of the solvent: solvent lost; for Hydration state: from TGA curve
Method: The water content of the five above salts was studied by thermogravimetric analysis (TGA).
The TGA tests are carried out in a TA8000 device equipped with a TGA850 module. The temperature calibrations are carried out conventionally using the melting of indium.
The experimental parameters employed were:
Final temperature: 250° C. for the dihydrochloride, 300° C. for the fumarate, 200° C. or 250° C. for the dihydrogensulfate, 250° C. or 300° C. for the dibesylate and the besylate.
The system is purged using nitrogen at a flow rate of 70 ml/min.
The pans used were 70 μl silica pans.

[3] = Chemical stability of salts exposed to heat and moisture, measured by HPLC; details: for Purity after 14 days at 80° C./80% RH: 14 days at 80° C. and 80% relative humidity; for Initial purity: before exposure (baseline of stability study)
Method: The chemical stability of the compound of formula (I) in the dihydrochloride, dihydrogensulfate, fumarate, dibenzenesulfonate and monobenzenesulfonate forms was studied.
Each of the five above salts is exposed to heat, to moisture and to light under the conditions below: • 14 days at a temperature of 80° C., • 14 days at a temperature of 80° C. and a relative humidity (RH) level of 80%, • exposure to light of 400 W.Hrs.m^−2.

Compound	Hygroscopicity (sorption isotherms), in words [1]	Hysteresis in sorption/desorption [1]	Loss in weight [2]	Nature of the solvent [2]	Hydration state [2]	Purity after 14 days at 80° C. [3]	Purity after 14 days at 80° C./80% RH [3]	Initial purity [3]	Water acquired during the sorption cycle ([1]; between 30 and 80% relative humidity)
FC(F)(F)c1cccc(C2=CCN(CCc3ccc4ccncc4c3)CC2)c1.O=S(=O)(O)c1ccccc1 [Besylate, 7-(2-(4-(3-(trifluoromethyl)phenyl)-1,2,3,6-tetrahydropyrid-1-yl)ethyl)isoquinoline besylate]	least hygroscopic of all the salts tested	No hysteresis	0.11 % weight/weight	Water	not hydrated	97.9%	96.5%	98.2%	–
FC(F)(F)c1cccc(C2=CCN(CCc3ccc4ccncc4c3)CC2)c1.O=S(=O)(O)c1ccccc1.O=S(=O)(O)c1ccccc1 [Dibesylate]	significant acquisition of water	hystereses observed during the desorption	0.72 % weight/weight	Water	–	97.5%	96.2%	97.5%	–
Cl.Cl.FC(F)(F)c1cccc(C2=CCN(CCc3ccc4ccncc4c3)CC2)c1 [Dihydrochloride]	–	weak hysteresis	11.0 % weight/weight	Water	three water molecules per mole of anhydrous salt	95.6%	92.9%	97.0%	1.9 % weight/weight
FC(F)(F)c1cccc(C2=CCN(CCc3ccc4ccncc4c3)CC2)c1.O=S(=O)(O)O.O=S(=O)(O)O [Dihydrogensulfate]	significant acquisition of water	hystereses observed during the desorption	2.06 % weight/weight	Solvent + water	–	91.9%	88.5%	93.3%	–
Fumarate	weakly hygroscopic	–	0.45 % weight/weight	Solvent + water	–	96.7%	32.4%	97.9%	–
